Data from PubChem BioAssay AID488931 (Broad Institute, 2010).
Active and inactive are the calls of the source.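 How the source made its calls: active means rising protection curve whose AC50 sits at or below ten times the top dose tested for that sample; inconclusive means flat response between 30 and 70 percent, or poor fit; inactive means the rest.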

Columns and labels:
[1] = INS-1E mitochondrial potential rescue under cytokines – cell-based, JC-1 fluorescence ratio, dry powder, dose response (AID 488931); conditions: INS-1E cytokine-induced mitochondrial depolarization, JC-1 ratio, 48 h; at 19.5 µM (top of the series)
[2] = system: INS-1E cytokine-induced mitochondrial depolarization, JC-1 ratio, 48 h; experiment: as above

Compound: COc1ccc(S(=O)(=O)N(C)C[C@@H]2Oc3c(NC(=O)Nc4cccc5ccccc45)cccc3C(=O)N([C@H](C)CO)C[C@@H]2C)cc1
- protection from depolarization [1]: 2.53% (inactive)

Compound: COc1ccc(S(=O)(=O)N(C)C[C@@H]2Oc3c(NS(=O)(=O)c4ccc(F)cc4)cccc3C(=O)N([C@@H](C)CO)C[C@H]2C)cc1
- protection from depolarization [1]: 2.07% (inactive)

Compound: C[C@@H]1CN([C@H](C)CO)C(=O)c2cccc(NC(=O)Nc3ccccc3)c2O[C@H]1CN(C)S(=O)(=O)c1ccc(F)cc1
- protection from depolarization [1]: 3.73% (inactive)

Compound: C[C@@H]1CN([C@@H](C)CO)C(=O)c2cccc(NC(=O)Nc3cccc4ccccc34)c2O[C@H]1CN(C)S(=O)(=O)c1ccccc1F
- protection from depolarization [1]: -1.29% (inactive)

Compound: COc1ccc(S(=O)(=O)N(C)C[C@@H]2Oc3c(NC(=O)Nc4cccc5ccccc45)cccc3C(=O)N([C@@H](C)CO)C[C@H]2C)c(OC)c1
- protection from depolarization [1]: 9.11% (inactive)

Compound: C[C@@H]1CN([C@@H](C)CO)C(=O)c2cccc(NC(=O)Nc3cccc4ccccc34)c2O[C@H]1CN(C)C(=O)Nc1ccccc1
- protection from depolarization [1]: -8.43% (inactive)

Compound: COc1ccc(S(=O)(=O)N(C)C[C@@H]2Oc3c(NC(=O)c4ccc(-c5nccs5)cc4)cccc3C(=O)N([C@@H](C)CO)C[C@H]2C)cc1
- protection from depolarization [1]: 3.72% (inactive)

Compound: COc1ccc(S(=O)(=O)N(C)C[C@@H]2Oc3c(NC(=O)C4CC4)cccc3C(=O)N([C@@H](C)CO)C[C@H]2C)cc1
- protection from depolarization [1]: 0.699% (inactive)

Compound: COc1ccc(S(=O)(=O)N(C)C[C@@H]2Oc3c(NC(=O)Nc4ccc(F)cc4)cccc3C(=O)N([C@@H](C)CO)C[C@H]2C)cc1
- protection from depolarization [1]: 23.9% (inactive)

Compound: C[C@@H]1CN([C@@H](C)CO)C(=O)c2cccc(NC(=O)Nc3cccc4ccccc34)c2O[C@H]1CN(C)S(=O)(=O)c1cn(C)cn1
- protection from depolarization [1]: -9.26% (inactive)

Compound: CNC[C@@H]1Oc2c(NC(=O)Nc3cccc4ccccc34)cccc2C(=O)N([C@@H](C)CO)C[C@H]1C
- protection from depolarization [1]: 4.81% (inactive)

Compound: C[C@@H]1CN([C@@H](C)CO)C(=O)c2cccc(NC(=O)Nc3cccc4ccccc34)c2O[C@H]1CN(C)C(=O)Nc1ccc(C(F)(F)F)cc1
- protection from depolarization [1]: -10.5% (inactive)

Compound: COc1ccc(S(=O)(=O)N(C)C[C@@H]2Oc3c(NC(=O)c4cc(C)nn4C)cccc3C(=O)N([C@@H](C)CO)C[C@H]2C)cc1
- protection from depolarization [1]: -6.67% (inactive)

Compound: C[C@@H]1CN([C@@H](C)CO)C(=O)c2cccc(NC(=O)Nc3cccc4ccccc34)c2O[C@H]1CN(C)S(=O)(=O)c1cccc(F)c1
- protection from depolarization [1]: -3.75% (inactive)

Compound: COc1ccc(S(=O)(=O)N(C)C[C@@H]2Oc3c(NC(=O)c4nc5ccccc5s4)cccc3C(=O)N([C@@H](C)CO)C[C@H]2C)cc1
- protection from depolarization [1]: -8.98% (inactive)

Compound: COc1ccc(S(=O)(=O)N(C)C[C@@H]2Oc3ccc(NC(=O)Nc4cccc5ccccc45)cc3C(=O)N([C@@H](C)CO)C[C@H]2C)cc1
- protection from depolarization [1]: -7.17% (inactive)

Compound: C[C@@H]1CN([C@@H](C)CO)C(=O)c2cccc(NS(=O)(=O)c3ccccc3)c2O[C@H]1CN(C)Cc1ccc(C(F)(F)F)cc1
- protection from depolarization [1]: -0.0726% (inactive)

Compound: COc1ccc(NC(=O)Nc2cccc3c2O[C@@H](CN(C)S(=O)(=O)c2ccc(OC)cc2)[C@H](C)CN([C@@H](C)CO)C3=O)cc1
- protection from depolarization [1]: -0.254% (inactive)

Compound: C[C@@H]1CN([C@@H](C)CO)C(=O)c2cccc(NC(=O)Nc3cccc4ccccc34)c2O[C@H]1CN(C)CC1CC1
- protection from depolarization [1]: 9.67% (inactive)

Compound: Cc1noc(C)c1NC(=O)N(C)C[C@@H]1Oc2c(NC(=O)Nc3cccc4ccccc34)cccc2C(=O)N([C@@H](C)CO)C[C@H]1C
- protection from depolarization [1]: 10.5% (inactive)

Compound: C[C@@H]1CN([C@@H](C)CO)C(=O)c2cccc(NC(=O)Nc3cccc4ccccc34)c2O[C@H]1CN(C)C(=O)Nc1ccc(F)cc1
- protection from depolarization [1]: -0.192% (inactive)

Compound: COc1ccc(S(=O)(=O)N(C)C[C@@H]2Oc3c(NC(=O)Nc4ccccc4)cccc3C(=O)N([C@H](C)CO)C[C@H]2C)cc1
- AC50 [2]: > 19.5 µM (inactive)

Compound: COc1ccc(S(=O)(=O)N(C)C[C@H]2Oc3c(NC(=O)Nc4cccc5ccccc45)cccc3C(=O)N([C@H](C)CO)C[C@H]2C)cc1
- protection from depolarization [1]: 7.31% (inactive)

Compound: COc1ccc(S(=O)(=O)N(C)C[C@@H]2Oc3c(NC(=O)NC4CCCCC4)cccc3C(=O)N([C@@H](C)CO)C[C@H]2C)cc1
- protection from depolarization [1]: 16.4% (inactive)

Compound: C[C@@H]1CN([C@@H](C)CO)C(=O)c2cccc(NC(=O)Nc3cccc4ccccc34)c2O[C@H]1CN(C)S(=O)(=O)c1ccc(F)cc1
- protection from depolarization [1]: 6.22% (inactive)

Compound: C[C@@H]1CN([C@@H](C)CO)C(=O)c2cccc(NC(=O)Nc3cccc4ccccc34)c2O[C@H]1CN(C)S(=O)(=O)c1ccccc1
- protection from depolarization [1]: 12.8% (inactive)

Compound: COc1ccc(S(=O)(=O)N(C)C[C@@H]2Oc3c(NC(=O)Nc4ccc(F)cc4)cccc3C(=O)N([C@H](C)CO)C[C@H]2C)cc1
- protection from depolarization [1]: 10.6% (inactive)

Compound: C[C@@H]1CN([C@@H](C)CO)C(=O)c2cccc(NC(=O)Nc3cccc4ccccc34)c2O[C@H]1CN(C)S(=O)(=O)c1ccc(OC(F)(F)F)cc1
- protection from depolarization [1]: -17.1% (inactive)

Compound: COc1ccc(S(=O)(=O)N(C)C[C@@H]2Oc3c(NS(C)(=O)=O)cccc3C(=O)N([C@@H](C)CO)C[C@H]2C)cc1
- protection from depolarization [1]: -3.87% (inactive)

Compound: C[C@@H]1CN([C@@H](C)CO)C(=O)c2cccc(NC(=O)Nc3cccc4ccccc34)c2O[C@H]1CN(C)S(=O)(=O)c1ccc2c(c1)oc(=O)n2C
- protection from depolarization [1]: 23.7% (inactive)

Compound: COc1ccc(S(=O)(=O)N(C)C[C@@H]2Oc3c(cccc3N(C)C)C(=O)N([C@@H](C)CO)C[C@H]2C)cc1
- protection from depolarization [1]: -3.81% (inactive)

Compound: COc1ccc(S(=O)(=O)N(C)C[C@@H]2Oc3c(NS(=O)(=O)c4ccccc4)cccc3C(=O)N([C@@H](C)CO)C[C@H]2C)cc1
- protection from depolarization [1]: 7.15% (inactive)

Compound: COc1ccc(S(=O)(=O)N(C)C[C@@H]2Oc3c(NS(=O)(=O)c4ccc(C)cc4)cccc3C(=O)N([C@@H](C)CO)C[C@H]2C)cc1
- protection from depolarization [1]: 2.95% (inactive)

Compound: COc1ccc(S(=O)(=O)N(C)C[C@@H]2Oc3c(NS(=O)(=O)c4cn(C)cn4)cccc3C(=O)N([C@@H](C)CO)C[C@H]2C)cc1
- protection from depolarization [1]: 1.64% (inactive)

Compound: COc1ccc(S(=O)(=O)N(C)C[C@@H]2Oc3c(NC(=O)C4CCOCC4)cccc3C(=O)N([C@@H](C)CO)C[C@H]2C)cc1
- protection from depolarization [1]: 0.344% (inactive)

Compound: C[C@@H]1CN([C@@H](C)CO)C(=O)c2cccc(NC(=O)Nc3ccccc3)c2O[C@H]1CN(C)S(=O)(=O)c1ccc(F)cc1
- protection from depolarization [1]: 11.5% (inactive)

Compound: C[C@@H]1CN([C@@H](C)CO)C(=O)c2cccc(NC(=O)Nc3cccc4ccccc34)c2O[C@H]1CN(C)S(=O)(=O)c1ccc2c(c1)OCCO2
- protection from depolarization [1]: 19.2% (inactive)

Compound: COc1ccc(S(=O)(=O)N(C)C[C@@H]2Oc3c(NS(=O)(=O)c4ccc(Cl)cc4)cccc3C(=O)N([C@@H](C)CO)C[C@H]2C)cc1
- protection from depolarization [1]: 3.44% (inactive)

Compound: Cc1ccc(S(=O)(=O)N(C)C[C@H]2Oc3c(NC(=O)Nc4cccc5ccccc45)cccc3C(=O)N([C@@H](C)CO)C[C@@H]2C)cc1
- protection from depolarization [1]: -8.26% (inactive)

Compound: C[C@@H]1CN([C@@H](C)CO)C(=O)c2cccc(NC(=O)Nc3cccc4ccccc34)c2O[C@H]1CN(C)C(=O)Nc1ccc2c(c1)OCO2
- protection from depolarization [1]: 0.627% (inactive)

Compound: C[C@@H]1CN([C@@H](C)CO)C(=O)c2cccc(NC(=O)Nc3cccc4ccccc34)c2O[C@H]1CN(C)C(=O)NC1CCCCC1
- protection from depolarization [1]: -5.64% (inactive)

Compound: COc1ccc(NC(=O)N(C)C[C@@H]2Oc3c(NC(=O)Nc4cccc5ccccc45)cccc3C(=O)N([C@@H](C)CO)C[C@H]2C)cc1
- protection from depolarization [1]: -6.82% (inactive)

Compound: COc1ccc(S(=O)(=O)N(C)C[C@@H]2Oc3c(NC(=O)c4cccc5ccccc45)cccc3C(=O)N([C@@H](C)CO)C[C@H]2C)cc1
- protection from depolarization [1]: 5.96% (inactive)

Compound: C[C@@H]1CN([C@H](C)CO)C(=O)c2cccc(NC(=O)Nc3cccc4ccccc34)c2O[C@H]1CN(C)S(=O)(=O)c1ccc(Cl)cc1
- protection from depolarization [1]: 20.7% (inactive)

Compound: COc1ccc(S(=O)(=O)N(C)C[C@@H]2Oc3c(NC(=O)Nc4ccc(C(F)(F)F)cc4)cccc3C(=O)N([C@@H](C)CO)C[C@H]2C)cc1
- protection from depolarization [1]: 12.6% (inactive)

Compound: Cc1ccc(S(=O)(=O)N(C)C[C@@H]2Oc3c(NC(=O)Nc4ccc(F)cc4)cccc3C(=O)N([C@H](C)CO)C[C@H]2C)cc1
- protection from depolarization [1]: 15.8% (inactive)

Compound: C[C@@H]1CN([C@@H](C)CO)C(=O)c2cccc(NC(=O)Nc3cccc4ccccc34)c2O[C@H]1CN(C)S(=O)(=O)c1ccc2c(c1)OCO2
- protection from depolarization [1]: 14.5% (inactive)

Compound: C[C@@H]1CN([C@@H](C)CO)C(=O)c2cccc(NC(=O)Nc3ccccc3)c2O[C@H]1CN(C)S(=O)(=O)c1ccc(Cl)cc1
- protection from depolarization [1]: 18.7% (inactive)

Compound: C[C@@H]1CN([C@@H](C)CO)C(=O)c2cccc(NC(=O)Nc3cccc4ccccc34)c2O[C@H]1CN(C)S(=O)(=O)c1cccs1
- protection from depolarization [1]: -8.53% (inactive)

Compound: C[C@H]1CN([C@@H](C)CO)C(=O)c2cccc(NC(=O)NC3CCCCC3)c2O[C@@H]1CN(C)S(C)(=O)=O
- protection from depolarization [1]: 4.62% (inactive)

Compound: C[C@@H]1CN([C@@H](C)CO)C(=O)c2cccc(NC(=O)Nc3cccc4ccccc34)c2O[C@H]1CN(C)S(=O)(=O)c1ccc2c(c1)OCCCO2
- protection from depolarization [1]: 5.1% (inactive)

Compound: Cc1ccc(S(=O)(=O)N(C)C[C@@H]2Oc3c(NC(=O)Nc4cccc5ccccc45)cccc3C(=O)N([C@@H](C)CO)C[C@H]2C)cc1
- protection from depolarization [1]: 13.7% (inactive)

Compound: COc1ccccc1S(=O)(=O)N(C)C[C@@H]1Oc2c(NC(=O)Nc3cccc4ccccc34)cccc2C(=O)N([C@@H](C)CO)C[C@H]1C
- protection from depolarization [1]: 4.59% (inactive)

Compound: C[C@@H]1CN([C@H](C)CO)C(=O)c2cccc(NC(=O)Nc3ccccc3)c2O[C@H]1CN(C)S(=O)(=O)c1ccc(Cl)cc1
- protection from depolarization [1]: 27.7% (inactive)

Compound: COc1ccc(S(=O)(=O)N(C)C[C@@H]2Oc3c(NC(=O)c4cnccn4)cccc3C(=O)N([C@@H](C)CO)C[C@H]2C)cc1
- protection from depolarization [1]: -0.183% (inactive)

Compound: COc1ccc(S(=O)(=O)N(C)C[C@@H]2Oc3c(NC(=O)Nc4cccc5ccccc45)cccc3C(=O)N([C@@H](C)CO)C[C@H]2C)cc1
- protection from depolarization [1]: 10.7% (inactive)
